Results on 21 compounds are retold here after patent US9573913B2, “Cathepsin cysteine protease inhibitors” (Merck Sharp & Dohme Corp., priority 2013, dated 2017).

Each structure is given as a SMILES string.

Test [1] deals with human cathepsin K (UniProt P43236). Put plainly: Cathepsin K Assay (hrbCat K). In kind it is biochemical. The settings on record: Z-Leu-Arg-AMC substrate, pH 5.5, 15 min preincubation; read-out: hrbCat K (IP (nM)). The method in brief: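 Human cathepsin K (0.4 nM) was preincubated 15 min at room temperature with compound in 50 mM MES pH 5.5, 2.5 mM EDTA, 2.5 mM DTT and 10% DMSO. Inhibition was fitted to a dose-response model.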

The target in test [2] is T1, human cathepsin F (Homo sapiens, UniProt Q9UBX1).
T1 sequence (Q9UBX1 271-484): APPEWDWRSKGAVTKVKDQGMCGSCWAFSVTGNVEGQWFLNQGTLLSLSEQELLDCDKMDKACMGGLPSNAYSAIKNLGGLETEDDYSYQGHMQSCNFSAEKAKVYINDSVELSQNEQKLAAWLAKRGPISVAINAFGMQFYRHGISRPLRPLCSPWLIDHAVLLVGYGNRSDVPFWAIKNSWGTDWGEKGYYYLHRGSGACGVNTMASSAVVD
Put plainly: Cathepsin F assay (hCat F). The conditions noted are these: Z-Phe-Arg-AMC substrate, pH 5.5, 15 min preincubation; read-out: hCat F (IP (nM)). Type of test: biochemical. The method in brief:
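Enzyme (10 nM) was preincubated 15 min at room temperature with compounds (1/3 DMSO dilution series, 500–0.025 μM) in 50 mM MES pH 5.5, 2.5 mM EDTA, 2.5 mM DTT, 10% DMSO. Z-Phe-Arg-AMC (8 μM) was added and AMC fluorescence (Ex 360/Em 460 nm) followed for 20 min. % inhibition was fitted to dose-response curves.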

Regarding `N#CC1(NC(=O)[C@@H]2CCCC[C@H]2c2nc(Oc3ccc(F)cc3F)sc2-c2ccc(N3CCS(=O)(=O)CC3)cc2)CC1` [Example 198, (1R,2R)-N-(1-cyanocyclopropyl)-2-(2-(2,4-difluorophenoxy)-5-(4-(1,1-dioxidothiomorpho-lino)phenyl)thiazol-4-yl)cyclohexane-carboxamide], the IC50 in test [1] was found to be 4.2 nM; in test [2], 1020 nM.

For the compound `CC(C)S(=O)(=O)c1ccc(-c2sc(-c3cncc(F)c3)nc2[C@@H]2CCCC[C@H]2C(=O)NC2(C#N)CC2)cc1` [Example 199, (1R,2R)-N-(1-cyanocyclopropyl)-2-(2-(5-fluoropyridin-3-yl)-5-(4-(isopropylsulfonyl)phenyl)thiazol-4-yl)cyclohexane-carboxamide], the IC50 in test [1] worked out at 25.8 nM; in test [2], 846 nM.

As for `N#CC1(NC(=O)[C@@H]2CCCC[C@H]2c2nc(NS(=O)(=O)c3ccccc3)sc2-c2ccc(N3CCS(=O)(=O)CC3)cc2)CC1` [Example 200, (1R,2R)-N-(1-cyanocyclopropyl)-2-(5-(4-(1,1-dioxidothiomorpho-lino)phenyl)-2-(phenylsulfonamido)thiazol-4-yl)cyclohexane-carboxamide], the results for the IC50 in test [1] and in test [2] were 116 nM and ≥ 10000 nM, respectively.

`CN(c1nc([C@@H]2CCCC[C@H]2C(=O)NC2(C#N)CC2)c(-c2ccc(N3CCS(=O)(=O)CC3)cc2)s1)S(=O)(=O)c1ccccc1` [Example 201, (1R,2R)-N-(1-cyanocyclopropyl)-2-(5-(4-(1,1-dioxidothiomorpho-lino)phenyl)-2-(N-methylphenylsulfon-amido)thiazol-4-yl)cyclohexane-carboxamide]: the IC50 in test [1] amounted to 1.2 nM; in test [2], 712 nM.

For the compound `N#CC1(NC(=O)[C@@H]2CCC(Cl)(Cl)C[C@H]2c2nc(-c3ccc(F)cn3)sc2-c2ccc(N3CCS(=O)(=O)CC3)cc2)CC1` [Example 204, (1R,2R)-4,4-dichloro-N-(1-cyanocyclopropyl)-2-(5-(4-(1,1-dioxidothiomorpho-lino)phenyl)-2-(5-fluoropyridin-2-yl)thiazol-4-yl)cyclohexane-carboxamide], the IC50 in test [1] is 88.2 nM; in test [2], 3330 nM.

For `Cc1nc([C@@H]2CC[C@H](F)C[C@H]2C(=O)NC2(C#N)CC2)c(-c2ccc(N3CCS(=O)(=O)CC3)cc2)s1` [Example 205, (1R,2R,5S)-N-(1-cyanocyclopropyl)-2-(5-(4-(1,1-dioxidothiomorpho-lino)phenyl)-2-methylthiazol-4-yl)-5-fluorocyclohexane-carboxamide], the IC50 in test [1] was 6.4 nM; in test [2], ≥ 10000 nM.

Take `Cc1nc([C@@H]2CC[C@H](F)C[C@H]2C(=O)N[C@@H](C)C#N)c(-c2ccc(N3CCS(=O)(=O)CC3)cc2)s1` [Example 206, (1R,2R,5S)-N-((S)-1-cyanoethyl)-2-(5-(4-(1,1-dioxidothiomorpho-lino)phenyl)-2-methylthiazol-4-yl)-5-fluorocyclohexane-carboxamide]: the results for the IC50 in test [1] and in test [2] were 5 nM and 9010 nM, respectively.

Regarding `C[C@@H](C#N)NC(=O)[C@@H]1C[C@@H](F)CC[C@H]1c1nc(C(C)(C)C)sc1-c1ccc(N2CCS(=O)(=O)CC2)cc1` [Example 207, (1R,2R,5S)-2-(2-(tert-butyl)-5-(4-(1,1-dioxidothiomorpho-lino)phenyl)thiazol-4-yl)-N-((S)-1-cyanoethyl)-5-fluorocyclohexane-carboxamide], the IC50 in test [1] is 1.6 nM; in test [2] it was 2570 nM.

As for `CC(C)(O)c1nc([C@@H]2CCCC[C@H]2C(=O)NC2(C#N)CC2)c(-c2ccc(N3CCS(=O)(=O)CC3)cc2)s1` [Example 208, (1R,2R)-N-(1-cyanocyclopropyl)-2-(5-(4-(1,1-dioxidothiomorpho-lino)phenyl)-2-(2-hydroxypropan-2-yl)thiazol-4-yl)cyclohexane-carboxamide], the IC50 was 7.9 nM in test [1] and ≥ 10000 nM in test [2].

As for `CC(C)[C@@H](C#N)NC(=O)[C@@H]1C[C@@H](F)CC[C@H]1c1nc(-c2cncc(F)c2)sc1-c1ccc(N2CCS(=O)(=O)CC2)cc1` [Example 209, (1R,2R,5S)-N-((S)-1-cyano-2-methylpropyl)-2-(5-(4-(1,1-dioxidothiomorpho-lino)phenyl)-2-(5-fluoropyridin-3-yl)thiazol-4-yl)-5-fluorocyclohexane-carboxamide], the values for the IC50 in test [1] and in test [2] were 1.5 nM and 1000 nM, respectively.

As for `Cc1nc([C@@H]2CC[C@H](F)C[C@H]2C(=O)N[C@H](C#N)C(C)C)c(-c2ccc(N3CCS(=O)(=O)CC3)cc2)s1` [Example 210, (1R,2R,5S)-N-((S)-1-cyano-2-methylpropyl)-2-(5-(4-(1,1-dioxidothiomorpho-lino)phenyl)-2-methylthiazol-4-yl)-5-fluorocyclohexane-carboxamide], the IC50 in test [1] amounted to 11.4 nM; in test [2], 9900 nM.

On to `N#CC1(NC(=O)[C@@H]2CCCC[C@H]2c2nc(-c3ccc(F)cn3)sc2-c2ccc(N3CCS(=O)(=O)CC3)cc2)COC1` [Example 211, (1R,2R)-N-(3-cyanooxetan-3-yl)-2-(5-(4-(1,1-dioxidothiomorpho-lino)phenyl)-2-(5-fluoropyridin-2-yl)thiazol-4-yl)cyclohexane-carboxamide], for which the IC50 in test [1] stood at 1.7 nM; in test [2] it was 289 nM.

For the compound `C[C@@H](C#N)NC(=O)[C@@H]1C[C@@H](F)CC[C@H]1c1nc(C2CC(F)(F)C2)sc1-c1ccc(N2CCS(=O)(=O)CC2)cc1` [Example 212, (1R,2R,5S)-N-((S)-1-cyanoethyl)-2-(2-(3,3-difluorocyclobutyl)-5-(4-(1,1-dioxidothiomorpho-lino)phenyl)thiazol-4-yl)-5-fluorocyclohexane-carboxamide], the IC50 in test [1] stood at 4.2 nM; in test [2], 6700 nM.

For `CC(C)[C@@H](C#N)NC(=O)[C@@H]1C[C@@H](F)CC[C@H]1c1nc(C2CC(F)(F)C2)sc1-c1ccc(N2CCS(=O)(=O)CC2)cc1` [Example 213], the IC50 in test [1] was 7.8 nM; in test [2], ≥ 10000 nM.

`Cc1ccc(-c2nc([C@@H]3CC[C@H](F)C[C@H]3C(=O)NC3(C#N)CC3)c(-c3ccc(N4CCOCC4)cc3)s2)nn1` [Example 216, (1R,2R,5S)-N-(1-cyanocyclopropyl)-5-fluoro-2-(2-(6-methylpyridazin-3-yl)-5-(4-morpholinophenyl)thiazol-4-yl)cyclohexane-carboxamide]: the results for the IC50 in test [1] and in test [2] were 7.1 nM and 2480 nM, respectively.

Take `Cc1ccc(-c2nc([C@@H]3CC[C@H](F)C[C@H]3C(=O)N[C@H](C#N)C(C)C)c(-c3ccc(N4CCS(=O)(=O)CC4)cc3)s2)nn1` [Example 217, (1R,2R,5S)-N-((S)-1-cyano-2-methylpropyl)-2-(5-(4-(1,1-dioxidothiomorpho-lino)phenyl)-2-(6-methylpyridazin-3-yl)thiazol-4-yl)-5-fluorocyclohexane-carboxamide]: the IC50 was 1.5 nM in test [1] and 2930 nM in test [2].

In the case of `C[C@@H](C#N)NC(=O)[C@@H]1C[C@@H](F)CC[C@H]1c1nc(C(F)F)sc1-c1ccc(N2CCS(=O)(=O)CC2)cc1` [Example 220, (1R,2R,5S)-N-((S)-1-cyanoethyl)-2-(2-(difluoromethyl)-5-(4-(1,1-dioxidothiomorpho-lino)phenyl)thiazol-4-yl)-5-fluorocyclohexane-carboxamide], the IC50 in test [1] came to 1.6 nM; in test [2], 2090 nM.

Take `Cc1ccc(-c2nc([C@@H]3CC[C@H](F)C[C@H]3C(=O)NC3(C#N)CC3)c(-c3ccc(N4CCC(C)(O)CC4)cc3)s2)nn1` [Example 222, (1R,2R,5S)-N-(1-cyanocyclopropyl)-5-fluoro-2-(5-(4-(4-hydroxy-4-methylpiperidin-1-yl)phenyl)-2-(6-methylpyridazin-3-yl)thiazol-4-yl)cyclohexane-carboxamide]: the values for the IC50 in test [1] and in test [2] were 6.2 nM and 2050 nM, respectively.

Take `Cc1ccc(-c2nc([C@@H]3CC[C@H](F)C[C@H]3C(=O)NC3(C#N)CC3)c(-c3ccc(N4CCC(S(C)(=O)=O)CC4)cc3)s2)nn1` [Example 223, (1R,2R,5S)-N-(1-cyanocyclopropyl)-5-fluoro-2-(2-(6-methylpyridazin-3-yl)-5-(4-(4-(methylsulfonyl)piperidin-1-yl)phenyl)thiazol-4-yl)cyclohexane-carboxamide]: the IC50 in test [1] is 2.9 nM; in test [2], 2230 nM.

On to `CC(C)(CO)c1nc([C@@H]2CCCC[C@H]2C(=O)NC2(C#N)CC2)c(-c2ccc(N3CCS(=O)(=O)CC3)cc2)s1` [Example 224, (1R,2R)-N-(1-cyanocyclopropyl)-2-(5-(4-(1,1-dioxidothiomorpho-lino)phenyl)-2-(1-hydroxy-2-methylpropan-2-yl)thiazol-4-yl)cyclohexane-carboxamide], for which the figures for the IC50 in test [1] and in test [2] were 3.3 nM and ≥ 10000 nM, respectively.

For `C[C@@H](C#N)NC(=O)[C@@H]1CCCC[C@H]1c1nc(C(C)(C)CO)sc1-c1ccc(N2CCS(=O)(=O)CC2)cc1` [Example 225, (1R,2R)-N-((S)-1-cyanoethyl)-2-(5-(4-(1,1-dioxidothiomorpho-lino)phenyl)-2-(1-hydroxy-2-methylpropan-2-yl)thiazol-4-yl)cyclohexane-carboxamide], the IC50 in test [1] is 1.6 nM; in test [2] it was 1040 nM.
